Measured values taken from PMC8319670 (Science translational medicine, 2021).

Key:
H6PD [1] = target: T1, H6PD (Homo sapiens, UniProt O95479); assay: H6PD IC50 assay; assay type: biochemical; details: for loss of H6PD inhibitory potency: relative to rucaparib
T1 sequence (O95479 20-791): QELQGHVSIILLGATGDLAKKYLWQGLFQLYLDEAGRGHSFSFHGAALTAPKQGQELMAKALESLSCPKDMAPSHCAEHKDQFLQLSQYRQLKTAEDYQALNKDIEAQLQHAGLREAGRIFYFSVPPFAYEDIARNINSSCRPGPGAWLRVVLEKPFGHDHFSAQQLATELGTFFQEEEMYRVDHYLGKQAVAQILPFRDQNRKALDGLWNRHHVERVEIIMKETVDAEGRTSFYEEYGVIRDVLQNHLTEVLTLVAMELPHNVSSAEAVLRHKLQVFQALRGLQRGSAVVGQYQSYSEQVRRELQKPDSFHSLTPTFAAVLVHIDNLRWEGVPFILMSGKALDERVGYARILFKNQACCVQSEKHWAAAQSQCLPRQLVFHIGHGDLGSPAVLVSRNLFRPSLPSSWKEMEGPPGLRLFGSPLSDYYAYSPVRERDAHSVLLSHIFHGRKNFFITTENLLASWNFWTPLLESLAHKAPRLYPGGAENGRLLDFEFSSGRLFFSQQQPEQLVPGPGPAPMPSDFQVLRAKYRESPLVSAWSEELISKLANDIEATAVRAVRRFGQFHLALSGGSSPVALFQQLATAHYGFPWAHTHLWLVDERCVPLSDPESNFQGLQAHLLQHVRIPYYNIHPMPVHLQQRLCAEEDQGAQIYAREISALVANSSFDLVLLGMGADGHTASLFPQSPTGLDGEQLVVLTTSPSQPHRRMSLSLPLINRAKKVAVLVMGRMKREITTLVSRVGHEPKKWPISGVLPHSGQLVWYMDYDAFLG

PARP-1 = details: cited from earlier work
prostate cancer cells = assay: Glucocorticoid metabolism with apalutamide treatment; assay type: cell-based, human; details: similar to enzalutamide
H6PD protein = H6PD protein immunoblot in enz-treated cell lines; assay type: cell-based, human; details: in vitro, LAPC4, VCaP and MDA-Pca-2b; transcript not increased
[2] = tested on: H6PD activity in LAPC4 cells; assay: Endoplasmic reticulum / microsomal NADPH in LAPC4 cells
H6PD [3] = assay: H6PD protein in prostate cancer patient tissues; parameters: species or system human; details: men with prostate cancer treated with enz and prostate tissues treated ex vivo; compared with pre-treatment
H6PD [4] = target: T1, H6PD; assay: Surface plasmon resonance; assay type: binding; details: SPR; Fig. 4A and fig. S9
G6PD = G6PD (Homo sapiens, UniProt P11413); assay: G6PD activity assay; assay type: biochemical; details: fig. S10
G6PD, sequence (P11413 whole entry): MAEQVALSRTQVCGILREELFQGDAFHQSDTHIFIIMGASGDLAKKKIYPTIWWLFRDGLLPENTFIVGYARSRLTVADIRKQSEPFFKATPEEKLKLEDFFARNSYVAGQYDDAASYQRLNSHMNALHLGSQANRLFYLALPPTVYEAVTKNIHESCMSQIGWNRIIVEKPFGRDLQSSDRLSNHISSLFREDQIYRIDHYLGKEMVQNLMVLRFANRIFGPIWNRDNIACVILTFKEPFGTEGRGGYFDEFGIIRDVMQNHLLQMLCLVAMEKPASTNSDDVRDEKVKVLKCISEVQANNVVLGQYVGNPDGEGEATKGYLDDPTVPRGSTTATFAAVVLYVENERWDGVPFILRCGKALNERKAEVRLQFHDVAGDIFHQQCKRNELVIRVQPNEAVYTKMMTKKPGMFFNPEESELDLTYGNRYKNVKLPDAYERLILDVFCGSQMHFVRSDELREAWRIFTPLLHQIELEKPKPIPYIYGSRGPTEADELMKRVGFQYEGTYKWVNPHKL

H6PD [5] = target: T1, H6PD; assay: In vitro H6PD activity assay; assay type: biochemical; details: for inhibition of H6PD activity: fig. S10
[6] = tested on: enz-resistant LAPC4 cells; assay: Cell viability assay; assay type: cell-based, human; details: 100 nM cortisol with 10 μM enz, 5 days; Fig 4E
H6PD [7] = details: of four PARP inhibitors; cited from earlier work

## CNCc1ccc(-c2[nH]c3cccc4c3c2CCNC4=O)cc1 [Compound 2]
H6PD [1]
  loss of H6PD inhibitory potency: greater than 20 x

## CNCc1ccc(-c2[nH]c3cc(F)cc4c3c2CCN(C)C4=O)cc1 [Compound 4]
H6PD [1]
  loss of H6PD inhibitory potency: ~ 10 x

## O=C1NCCc2c(-c3ccc(CO)cc3)[nH]c3cc(F)cc1c23 [Compound 5]
PARP-1
  PARP inhibition activity: poor PARP inhibition activity
H6PD [1]; read-out: H6PD IC50
  IC50: 27 µM

## CNC(=O)c1ccc(N2C(=S)N(c3cnc(C#N)c(C(F)(F)F)c3)C(=O)C23CCC3)cc1F [apalutamide]
Prostate cancer cells
  changes in glucocorticoid metabolism: induces similar changes in glucocorticoid metabolism

## CNC(=O)c1ccc(N2C(=S)N(c3ccc(C#N)c(C(F)(F)F)c3)C(=O)C2(C)C)cc1F [enzalutamide]
H6PD protein
  H6PD protein: increased
[2]; LAPC4 cells, continuous enz treatment, p<0.0001
  increase in NADPH generation in the endoplasmic reticulum: > 2 fold
H6PD [3]
  H6PD in patient tissues post-treatment: increase in H6PD was also detectable

## O=C(c1cc(Cc2n[nH]c(=O)c3ccccc23)ccc1F)N1CCN(C(=O)C2CC2)CC1 [olaparib]
H6PD [4]
  binding to H6PD: but not olaparib (another PARP inhibitor) specifically bound H6PD
G6PD
  inhibition of G6PD activity: neither inhibited G6PD activity
H6PD [5]
  inhibition of H6PD activity: but not olaparib inhibited H6PD activity

## CNCc1ccc(-c2[nH]c3cc(F)cc4c3c2CCNC4=O)cc1 [rucaparib]
H6PD [4]
  binding to H6PD: specifically bound H6PD
G6PD
  inhibition of G6PD activity: neither inhibited G6PD activity
[2]; enz-resistant LAPC4 cells, 24 hours, microsomal NADPH, Fig 4C
  H6PD generation of NADPH in enz-resistant prostate cancer: inhibited H6PD generation of NADPH
[6]
  cell viability: limited cell viability in vitro
H6PD [5]; H6PD protein, D-glucosamine 6-phosphate and NADP, 1 hour, Fig 4B
  H6PD generation of NADPH in vitro: inhibited H6PD generation of NADPH in vitro
H6PD [5]
  inhibition of H6PD activity: inhibited H6PD activity
H6PD [5]; listed as Rucaparib
  inhibition of H6PD activity: modest H6PD inhibitor
H6PD [7]
  off-target H6PD inhibition: off-target H6PD inhibition was specifically identified only with rucaparib
